Among the data in patent US7855205B2, “Pyrimidinyl substituted fused-pyrrolyl compounds useful in treating kinase disorders” (Janssen Pharmaceutica NV, priority 2004, dated 2010) are IC50 values, retold here.

Each structure is given as a SMILES string. Like-named read-outs stand apart in the source and are kept apart here.

The subject of one assay is A375 malignant melanoma. As to the kind of experiment: Inhibition of cell proliferation (14C-thymidine incorporation), A375. The assay is classed as cell-based, human. The method, then:
(§1) The ability of a test compound to inhibit the proliferation of cell growth was determined by measuring incorporation of ^14C-labelled thymidine into newly synthesized DNA within the cells. This method was used on cell lines derived from carcinomas originating from several tissues such as HeLa cervical adenocarcinoma (American Type Culture Collection (ATCC), Virginia, Cat. #CCL-2), A375 malignant melanoma (ATCC CRL-1619), HCT-116 colon carcinoma (CCL-247). In this way the effect of a compound on cell growth of cells with many different phenotypes can be determined. Cells were trypsinized and counted and 3000-8000 cells were added to each well of a 96-well CytoStar tissue culture treated scintillating microplate (Amersham #RPNQ0160) in complete medium in a volume of 100 μL. Cells were incubated for 24 hours in complete medium at 37° C. in an atmosphere containing 5% CO2.
(§2) Next, 1 μL of test compound in 100% DMSO was added to the wells of the plate. DMSO only was added to control wells. Cells were incubated for 24 more hours in complete medium at 37° C. in an atmosphere containing 5% CO2. Methyl ^14C-thymidine 56 mCi/mmol (NEN #NEC568 or Amersham #CFA532) was diluted in complete medium and 0.2 uCi/well was added to each well of the CytoStar plate in a volume of 20 μl. The plate was incubated for 24 hours at 37° C. plus 5% CO2 in drug plus ^14C-thymidine. The contents of the plate discarded into a ^14C radioactive waste container by inverting the plate and the plate was washed twice with 200 μL PBS.
(§3) 200 μL of PBS is added to each well. The top of the plate was sealed with a transparent plate sealer and a white plate backing sealer (Packard #6005199) was applied to the bottom of the plate. The degree of methyl ^14C-thymidine incorporation was quantified on a Packard Top Count.
Background: Uptake of a labelled nucleoside into DNA is a usual measure of proliferation.

A further assay addresses T1, Aurora-A (Mus musculus, UniProt P97477).
T1 construct: made in house; host or cells: sf9 insect cells
T1 sequence (P97477 1-395): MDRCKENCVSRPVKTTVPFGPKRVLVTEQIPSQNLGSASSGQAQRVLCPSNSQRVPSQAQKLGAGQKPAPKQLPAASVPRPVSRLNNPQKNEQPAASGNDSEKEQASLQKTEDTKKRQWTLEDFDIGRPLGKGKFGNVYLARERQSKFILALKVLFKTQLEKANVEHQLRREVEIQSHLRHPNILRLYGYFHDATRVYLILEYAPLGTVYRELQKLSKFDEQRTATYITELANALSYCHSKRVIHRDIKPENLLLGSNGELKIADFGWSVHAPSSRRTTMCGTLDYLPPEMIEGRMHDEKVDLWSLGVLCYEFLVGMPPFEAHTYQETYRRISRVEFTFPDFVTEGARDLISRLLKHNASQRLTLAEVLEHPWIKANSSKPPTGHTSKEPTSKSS
As to the kind of experiment: Aurora-A Screening Assay. The assay is classed as biochemical, murine. As to conditions: 33P-γ-ATP incorporation, 10 μM ATP. The method, then: (§4) A kinase reaction mixture was prepared containing 50 mM Tris-HCl pH=8, 10 mM MgCl2, 0.1 mM […], 1 mM DTT, 10 μM ATP, 0.025 μM biotinylated histone-HI peptide substrate and […] per well ^33P-γ-ATP (2000-3000 Ci/mmol). 70 μL of the kinase reaction mixture was dispensed into the well of a streptavidin coated FlashPlate™ (Cat. # SMP103, NEN, Boston, Mass.). Then 1 μL of test compound stock in 100% DMSO was added to the wells resulting in a final concentration of 1% DMSO in the reaction with a 100 μL final reaction volume.
(§5) The CDK1:Cyclin-B protein was then diluted in 50 mM Tris-HCl pH=8.0, 0.1% BSA at a concentration of 1 ng per μL and 30 μL (30 ng enzyme per test well) was added to each well to initiate the reaction. The reaction was incubated for one hour at 30° C. At the end of the 1 h incubation, the reaction was terminated by aspirating the mixture from the plate and washing the wells twice with PBS containing 100 mM EDTA. The histone-H1 biotinylated peptide substrate became immobilized on the Flashplate™ and the incorporation of ^33P-γ-ATP was measured by reading the plate on a scintillation counter. Inhibition of the enzymatic activity of CDK1 was measured by observing a reduced amount of ^33P-γ-ATP incorporated into the immobilized peptide.
The Aurora-A kinase assay was carried out using the CDK kinase assay procedure except that the enzyme was replaced with the full length protein encoding the murine Aurora-A (Accession# GB BC014711) expressed and purified from sf9 insect cells.
(§6) • VEGF-R2, HER2 and (Biotin)[…]-Amide • RET kinases • CDK1 (Biotin)[…]-Amide • Aurora-A kinase Biotin-[…]-Amide

For assay [1], the system named is HeLa cervical adenocarcinoma. Description: Inhibition of cell proliferation (14C-thymidine incorporation), HeLa.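 Note: HeLa cells in 96-well scintillating plates, compound for 24 h then 24 h more with 14C-thymidine, counting label built into new DNA against DMSO-only control wells.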 Type of assay: cell-based.
Another assay concerns the target T2, CDK1:Cyclin-B (Homo sapiens, UniProt P06493).
T2 construct: purchased New England Biolabs, Beverly, Mass; 6020; host or cells: insect cells
As to the kind of experiment: CDK1 Screening Assay. Type of assay: biochemical. As to conditions: 33P-γ-ATP incorporation, 10 μM ATP. The method, then:
as §4, §5
The CDK1 used was isolated from insect cells expressing both the human CDK1 catalytic subunit and its positive regulatory subunit cyclin B (New England Biolabs, Beverly, Mass., Cat. #6020).
as §6

The subject of another assay is HCT-116 colon carcinoma. As to the kind of experiment: Inhibition of cell proliferation (14C-thymidine incorporation), HCT-116. Type of assay: cell-based. On the procedure: as §1, §2, §3
In a further assay the target is T3, VEGF-R2 (Rattus norvegicus, UniProt O08775).
T3 construct: polyhistidine (N)
As to the kind of experiment: VEGF-R2 Screening Assay. Type of assay: biochemical. As to conditions: 33P-γ-ATP incorporation, 10 μM ATP. The method, then: as §5, with “Then 1 μL of test compound stock in 100% DMSO was added to the wells resulting in a final concentration of 1% DMSO in the reaction with a 100 μL final reaction volume. The CDK1:Cyclin-B” for “The CDK1:Cyclin-B”, “immobilized peptide. The VEGF-R kinase assay was carried out using the CDK kinase assay procedure except that the enzyme was replaced with the VEGF-R2 fusion protein containing a polyhistidine tag at the N-terminus followed by amino acids 786-1343 of the rat VEGF-R2 kinase domain (GenBank Accession #U93306).” for “immobilized peptide.”

T3 sequence (O08775 786-1343): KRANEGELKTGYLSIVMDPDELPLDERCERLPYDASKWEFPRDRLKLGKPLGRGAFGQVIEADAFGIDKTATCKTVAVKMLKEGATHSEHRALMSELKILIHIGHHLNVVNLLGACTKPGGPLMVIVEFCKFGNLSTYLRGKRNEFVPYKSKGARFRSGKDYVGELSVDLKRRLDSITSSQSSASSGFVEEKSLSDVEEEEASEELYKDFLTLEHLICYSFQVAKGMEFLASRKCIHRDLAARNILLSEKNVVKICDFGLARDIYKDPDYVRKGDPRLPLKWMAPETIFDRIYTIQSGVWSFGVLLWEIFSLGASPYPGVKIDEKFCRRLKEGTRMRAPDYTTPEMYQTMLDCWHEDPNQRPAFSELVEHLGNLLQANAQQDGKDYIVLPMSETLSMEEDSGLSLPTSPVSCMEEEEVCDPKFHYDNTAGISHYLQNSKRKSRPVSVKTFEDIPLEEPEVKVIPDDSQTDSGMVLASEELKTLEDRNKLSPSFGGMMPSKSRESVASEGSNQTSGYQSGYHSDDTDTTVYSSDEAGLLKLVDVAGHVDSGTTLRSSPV
T2 sequence (P06493 whole entry): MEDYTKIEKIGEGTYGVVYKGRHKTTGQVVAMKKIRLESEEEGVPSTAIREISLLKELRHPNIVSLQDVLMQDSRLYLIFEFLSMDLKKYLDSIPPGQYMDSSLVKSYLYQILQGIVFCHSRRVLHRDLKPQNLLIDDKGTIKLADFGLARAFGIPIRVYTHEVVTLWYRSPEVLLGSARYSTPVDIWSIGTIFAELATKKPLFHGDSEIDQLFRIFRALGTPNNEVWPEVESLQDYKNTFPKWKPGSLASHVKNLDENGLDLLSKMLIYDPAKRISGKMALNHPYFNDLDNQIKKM
T2 sequence (P14635 whole entry partner): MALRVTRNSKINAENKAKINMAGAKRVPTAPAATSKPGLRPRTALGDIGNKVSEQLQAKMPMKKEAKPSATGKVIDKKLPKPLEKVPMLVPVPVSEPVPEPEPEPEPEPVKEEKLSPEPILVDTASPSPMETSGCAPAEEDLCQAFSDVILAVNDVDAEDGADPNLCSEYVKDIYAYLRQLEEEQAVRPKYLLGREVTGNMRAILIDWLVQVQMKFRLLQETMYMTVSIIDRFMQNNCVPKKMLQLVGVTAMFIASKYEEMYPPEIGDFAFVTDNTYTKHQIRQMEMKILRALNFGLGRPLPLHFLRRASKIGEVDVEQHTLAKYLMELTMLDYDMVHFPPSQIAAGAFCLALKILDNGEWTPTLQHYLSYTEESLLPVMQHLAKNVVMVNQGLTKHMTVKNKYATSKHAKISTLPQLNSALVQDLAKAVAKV

By IC50 is commonly meant the midpoint of a concentration-inhibition curve. A low value points to greater potency in that assay. For `CC1CCC(Nc2nccc(-c3c[nH]c4ncccc34)n2)CC1` (mixture of isomers) [Cpd 17, (4-Methyl-cyclohexyl)-[4-(1H-pyrrolo[2,3-b]pyridin-3-yl)-pyrimidin-2-yl]-amine], the IC50 was found to be 0.014 µM in the assay with A375 malignant melanoma (Homo sapiens, A-375); 0.312 µM against Aurora-A; 0.0243 µM in assay [1] (Homo sapiens); 0.012 µM on CDK1:Cyclin-B; 0.0208 µM in the assay on HCT-116 colon carcinoma (Homo sapiens, HCT-116, HCT116); 3.81 µM against VEGF-R2.

`CN(C)CC(O)Cn1cc(-c2ccnc(N[C@H]3CC[C@H](O)CC3)n2)c2cccnc21` (relative stereo) [Cpd 76, trans-4-{4-[1-(3-Dimethylamino-2-hydroxy-propyl)-1H-pyrrolo[2,3-b]pyridin-3-yl]-pyrimidin-2-ylamino}-cyclohexanol]: the IC50 with A375 malignant melanoma (Homo sapiens, A-375) was 0.298 µM; in assay [1] (Homo sapiens) it was 0.21 µM; at CDK1:Cyclin-B, 1.35 µM; in the assay with HCT-116 colon carcinoma (Homo sapiens, HCT-116, HCT116), 0.157 µM; on VEGF-R2, 10 µM.

On to `Cc1ccccc1Nc1nccc(-c2c[nH]c3ncccc23)n1` [Cpd 8, [4-(1H-Pyrrolo[2,3-b]pyridin-3-yl)-pyrimidin-2-yl]-o-tolyl-amine], for which the concentration for half-maximal inhibition (IC50) in the assay on A375 malignant melanoma (Homo sapiens, A-375) is 0.024 µM; at Aurora-A it was 0.301 µM; at CDK1:Cyclin-B, 0.0037 µM; with HCT-116 colon carcinoma (Homo sapiens, HCT-116, HCT116) it was 0.024 µM; at VEGF-R2, 0.57 µM.

As to `Cc1cccc(Nc2nccc(-c3c[nH]c4ncccc34)n2)c1` [Cpd 9, [4-(1H-Pyrrolo[2,3-b]pyridin-3-yl)-pyrimidin-2-yl]-m-tolyl-amine], the IC50 was 0.34 µM in the assay with A375 malignant melanoma (Homo sapiens, A-375); 0.136 µM on Aurora-A; 0.057 µM at CDK1:Cyclin-B; 0.25 µM in the assay on HCT-116 colon carcinoma (Homo sapiens, HCT-116, HCT116); 0.0967 µM against VEGF-R2.

On to `Clc1ccc(Nc2nccc(-c3c[nH]c4ncccc34)n2)c(Cl)c1` [Cpd 36, (2,4-Dichlorophenyl)-[4-(1H-pyrrolo[2,3-b]pyridin-3-yl)-pyrimidin-2-yl]-amine], for which the IC50 stood at 0.448 µM with A375 malignant melanoma (Homo sapiens, A-375); 1 µM against Aurora-A; 0.467 µM in assay [1] (Homo sapiens); 0.0223 µM on CDK1:Cyclin-B; 0.277 µM in the assay with HCT-116 colon carcinoma (Homo sapiens, HCT-116, HCT116).

For `Cc1cc(CCO)ccc1Nc1nccc(-c2c[nH]c3ncccc23)n1` [Cpd 44], the IC50 amounted to 0.00845 µM in the assay on A375 malignant melanoma (Homo sapiens, A-375); 0.142 µM against Aurora-A; 0.011 µM in assay [1] (Homo sapiens); 0.00398 µM with HCT-116 colon carcinoma (Homo sapiens, HCT-116, HCT116); 0.493 µM on VEGF-R2.

`Cn1cc(-c2ccnc(NC3CCCCC3)n2)c2cccnc21` [Cpd 66, Cyclohexyl-[4-(1-methyl-1H-pyrrolo[2,3-b]pyridin-3-yl)pyrimidin-2-yl]-amine]: the IC50 with A375 malignant melanoma (Homo sapiens, A-375) is not below 10 µM; in assay [1] (Homo sapiens) it was 52.2 µM; with HCT-116 colon carcinoma (Homo sapiens, HCT-116, HCT116), not below 10 µM.

Turning to `CN(C)CCn1cc(-c2ccnc(NC3CCCCC3)n2)c2cccnc21` [Cpd 69, Cyclohexyl-{4-[1-(2-dimethylaminoethyl)-1H-pyrrolo[2,3-b]pyridin-3-yl]-pyrimidin-2-yl}-amine], the 50% inhibitory concentration (IC50) in the assay with A375 malignant melanoma (Homo sapiens, A-375) was 7.69 µM; in assay [1] (Homo sapiens), 8.9 µM; at CDK1:Cyclin-B it was 10.4 µM; with HCT-116 colon carcinoma (Homo sapiens, HCT-116, HCT116), 13.4 µM.

Take `OCCn1cc(-c2ccnc(NC3CCCCC3)n2)c2cccnc21` [Cpd 70, Cyclohexyl-{4-[1-(2-hydroxyethyl)-1H-pyrrolo[2,3-b]pyridin-3-yl]-pyrimidin-2-yl}-amine]: the IC50 is 5.93 µM in the assay on A375 malignant melanoma (Homo sapiens, A-375); 6.29 µM in assay [1] (Homo sapiens); 3.21 µM against CDK1:Cyclin-B; 3.97 µM with HCT-116 colon carcinoma (Homo sapiens, HCT-116, HCT116).

`Cn1cc(-c2ccnc(N[C@H]3CC[C@H](O)CC3)n2)c2cccnc21` [Cpd 71, trans-4-[4-(1-Methyl-1H-pyrrolo[2,3-b]pyridin-3-yl)-pyrimidin-2-ylamino]-cyclohexanol]: the IC50 in the assay with A375 malignant melanoma (Homo sapiens, A-375) was found to be 7.15 µM; in assay [1] (Homo sapiens) it was 9.51 µM; against CDK1:Cyclin-B it was 1.65 µM; in the assay with HCT-116 colon carcinoma (Homo sapiens, HCT-116, HCT116), 4.46 µM.

Turning to `CNCCn1cc(-c2ccnc(N[C@H]3CC[C@H](O)CC3)n2)c2cccnc21` [Cpd 73, trans-4-{4-[1-(2-Methylaminoethyl)-1H-pyrrolo[2,3-b]pyridin-3-yl]-pyrimidin-2-ylamino}-cyclohexanol], the IC50 turned out to be 3.95 µM with A375 malignant melanoma (Homo sapiens, A-375); 4.16 µM in assay [1] (Homo sapiens); 7.02 µM on CDK1:Cyclin-B; 3.51 µM in the assay on HCT-116 colon carcinoma (Homo sapiens, HCT-116, HCT116).

For `CN(C)CCn1cc(-c2ccnc(N[C@H]3CC[C@H](O)CC3)n2)c2cccnc21` [Cpd 74, trans-4-{4-[1-(2-Dimethylaminoethyl)-1H-pyrrolo[2,3-b]pyridin-3-yl]-pyrimidin-2-ylamino}-cyclohexanol], the IC50 came to 3.02 µM in the assay with A375 malignant melanoma (Homo sapiens, A-375); 4.53 µM in assay [1] (Homo sapiens); 3.89 µM against CDK1:Cyclin-B; 3.76 µM in the assay with HCT-116 colon carcinoma (Homo sapiens, HCT-116, HCT116).

Take `O=S(=O)(c1ccccc1)n1cc(-c2ccnc(N[C@H]3CC[C@H](O)CC3)n2)c2cccnc21` [Cpd 75, trans-4-[4-(1-Benzenesulfonyl-1H-pyrrolo[2,3-b]pyridin-3-yl)-pyrimidin-2-ylamino]-cyclohexanol]: the IC50 in the assay with A375 malignant melanoma was found to be 2.81 µM; against Aurora-A, 10 µM; in assay [1] it was 1.99 µM; at CDK1:Cyclin-B, 2.02 µM; with HCT-116 colon carcinoma (HCT116), 1.58 µM.

As for `CNCCOc1ccc(Nc2nccc(-c3c[nH]c4ncccc34)n2)c(C)c1` [Cpd 80, [4-(2-Methylamino-ethoxy)-2-methyl-phenyl]-[4-(1H-pyrrolo[2,3-b]pyridin-3-yl)-pyrimidin-2-yl]-amine], the IC50 was 4.54 µM with A375 malignant melanoma (Homo sapiens, A-375); 2.58 µM in assay [1] (Homo sapiens); 2.31 µM on CDK1:Cyclin-B; 3.87 µM in the assay on HCT-116 colon carcinoma (Homo sapiens, HCT-116, HCT116); 10 µM against VEGF-R2.

As to `Cc1cc(OCCN(C)C)ccc1Nc1nccc(-c2c[nH]c3ncccc23)n1` [Cpd 81, [4-(2-Dimethylamino-ethoxy)-2-methyl-phenyl]-[4-(1H-pyrrolo[2,3-b]pyridin-3-yl)-pyrimidin-2-yl]-amine], the IC50 in the assay on A375 malignant melanoma (Homo sapiens, A-375) stood at 2.81 µM; in assay [1] (Homo sapiens) it was 13.2 µM; against CDK1:Cyclin-B, 1.87 µM; in the assay on HCT-116 colon carcinoma (Homo sapiens, HCT-116, HCT116) it was 4.54 µM.
